Assay results as given in patent US5939447A, “Substituted benzopyrans” (SmithKline Beecham Corporation, priority 1998, dated 1999).

What was measured:
[1] = human radiolabel study of pranlukast (recovery in feces, metabolites in feces and plasma); type: in vivo; details: for plasma concentrations of metabolite in humans: human plasma, limited data from the single radiolabelled study
[2] = incubation of pranlukast with liver microsomes from rats or mice; type: in vitro ADME; details: rat or mouse liver microsomes; for metabolite formation from pranlukast: high concentrations of pranlukast (50 uM)
[3] = incubation of pranlukast with liver microsomes from dogs; type: in vitro ADME; details: dog liver microsomes
[4] = incubation of pranlukast with human liver S9 from donor H51; type: in vitro ADME
Method: Samples from the human S9 incubations were received as a 1:1 mixture of incubation media and acetonitrile. In order to reduce the relative organic content to about 25%, the samples were diluted with an equal volume of water prior to HPLC/MS and HPLC/MS/MS analysis. Samples from the microsomal incubations were also received as a 1:1 mixture of incubation media and acetonitrile. The relative organic content was however reduced to about 25% by evaporation following the centrifugation step.
Retention times observed in the ion chromatograms for m/z 498 and 482 (pranlukast) correlate well with those in the radiochromatogram. […] Therefore, in the CID spectra of the two monohydroxylated metabolites and the parent compound, the precursor and fragment ions are all shifted by +2 amu due to the predominance of the [^14 C] label. The observed fragmentation patterns are identical to the standards and confirmed the presence of pranlukast, as well as two monohydroxylated metabolites.

[5] = assays predictive of utility in treating asthma
[6] = incubation with human liver microsomes; type: in vitro ADME; details: human liver microsomes and NADPH
Method: From an evaluation of a battery of human liver microsomes, it was evident that some human livers have enhanced activity towards benzylic hydroxylation. It appears that benzylic and aryl hydroxylation are performed by different P450 enzymes but which enzyme(s) is currently not known.
Preparation of Formula (I) Using Human Hepatic Microsomes:
The incubations were performed with a final volume of 100 mL in a shaking water bath at a temperature of approximately 37° C. Each incubation contained approximately 400 ug/mL of microsomal protein (H51), 0.5 mL 2 mM pranlukast in a 16% w/v encapsin solution containing 1.5% w/v sodium bicarbonate. The incubation volume was adjusted to 75 mL with 50 mM potassium phosphate buffer (pH 7.4). Following a 5 minute pre-incubation at approximately 37° C., the reaction was initiated by the addition of 25 mL of pre-warmed cofactor solution (approximately 1.7 mg NADP, 7.8 mg glucose 6-phosphate and 6 units of glucose 6-phosphate dehydrogenase per mL of 2% (w/v) sodium hydrogen carbonate). […] The putative benzyl hydroxy metabolite was subsequently isolated and analysed as described below. […]
The incubation was performed with a final volume of […] in a shaking water bath at a temperature of approximately 37° C. […] The putative dihydroxymetabolite formed was subsequently analysed and isolated as described below.

| Structure (SMILES) | sulfation in humans ([1]; human) | plasma concentrations of metabolite in humans [1] | plasma concentrations of metabolite in humans ([1]; listed as benzylhydroxy) | metabolite formation from pranlukast [2] | metabolite formation from pranlukast [3] | dependence of metabolite formation on NADPH [4] | metabolite formation from pranlukast [4] | activity in assays predictive of utility in treating asthma and other diseases which can be treated by pranlukast [5] | absorption ([1]; human) | route of metabolism in humans ([1]; human, benzylic hydroxylation) | dose excreted ([1]; human, feces, after pranlukast, read-out: administered radiolabel recovered in feces as the named species) [%] | administered radiolabel recovered in feces ([1]; human, total radiolabel after pranlukast) [%] | predominant metabolic pathway [2] | presence of metabolite in human fecal samples ([1]; human feces) | metabolite generated in vitro from the 4-hydroxyphenyl pranlukast analog [6] |
| --- | --- | --- | --- | --- | --- | --- | --- | --- | --- | --- | --- | --- | --- | --- | --- |
| O=C(Nc1cccc2c(=O)cc(-c3nnn[nH]3)oc12)c1ccc(OCCCC(O)c2ccccc2)cc1 (centres unmarked) [Formula (I), 4-oxo-8-[4-(4-hydroxy-4-phenylbutoxy)benzoylamino]-2-tetrazol-5-yl-4H-1-benzopyran] | no evidence for sulfation | measurable plasma concentrations in humans | measurable in human plasma | detectable | only very small amounts | dependent on the presence of NADPH | major metabolites | active |  |  |  |  |  |  |  |
| O=C(Nc1cccc2c(=O)cc(-c3nnn[nH]3)oc12)c1ccc(OCCCCc2ccccc2)cc1 [pranlukast, reference compound] |  |  |  |  |  |  |  |  | poor absorption | major route of metabolism in humans | ~84 | 98.4 | hydrolysis of the amide bond in the center of the molecule is the predominant metabolic pathway |  |  |
| O=C(Nc1cccc2c(=O)cc(-c3nnn[nH]3)oc12)c1ccc(OCCCC(O)c2ccc(O)cc2)cc1 (centres unmarked) [Formula (II), 4-oxo-8-[4-(4-hydroxy-4-(4-hydroxyphenyl)butoxy)benzoylarnino]-2-tetrazol-5-yl-4H-1-benzopyran] | appears to be sulfated in humans | measurable in human plasma |  | detectable | form the arylhydroxy species |  |  | active |  |  |  |  |  | found in human fecal samples | generated in vitro |
